Laboratory results published in patent US5807900A, “Method for identifying compounds having increased activity for the repair of skin photodamage” (priority 1995, dated 1998).
Read-outs that look alike come from different tables or passages of the source.

Tests used:
human RAR-α [1] = molecular target: T1, human RAR-α (Homo sapiens, UniProt P10276); assay: Binding assay for human RAR-α (displacement of 3H-retinoic acid); conditions: 3H-retinoic acid displacement, mean of two or more experiments
T1 sequence (P10276 201-462 limits assumed): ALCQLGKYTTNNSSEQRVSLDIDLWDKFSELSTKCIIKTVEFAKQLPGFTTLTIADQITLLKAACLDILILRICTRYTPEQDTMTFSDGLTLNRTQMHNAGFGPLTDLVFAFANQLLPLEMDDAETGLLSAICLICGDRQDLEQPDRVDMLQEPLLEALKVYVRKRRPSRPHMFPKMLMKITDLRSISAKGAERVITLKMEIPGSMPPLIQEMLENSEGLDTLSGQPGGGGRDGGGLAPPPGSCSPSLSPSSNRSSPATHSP

human RAR-β = molecular target: T2, human RAR-β (Homo sapiens, UniProt P10826); assay: Binding assay for human RAR-β (displacement of 3H-retinoic acid); conditions: 3H-retinoic acid displacement, mean of two or more experiments
T2 sequence (P10826 201-455 limits assumed): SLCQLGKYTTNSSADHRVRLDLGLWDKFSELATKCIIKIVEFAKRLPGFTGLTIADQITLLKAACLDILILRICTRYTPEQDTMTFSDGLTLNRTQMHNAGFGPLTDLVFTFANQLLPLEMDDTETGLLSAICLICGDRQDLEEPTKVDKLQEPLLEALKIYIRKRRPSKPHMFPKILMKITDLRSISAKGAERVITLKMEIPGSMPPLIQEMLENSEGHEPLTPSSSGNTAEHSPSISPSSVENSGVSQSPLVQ
Experimental: (§1) Binding Assay for Human RAR-α, RAR-β and RAR-γ
(§2) Binding assays were performed essentially as described in Apfel et al., supra. […] Extracts containing the receptors were used in a competitive binding assay which depends upon the ability of increasing concentrations of a retinoid to displace ^3 H-retinoic acid. In a typical assay, 0.2 to 0.4 picomoles of receptors were incubated in 0.2 ml of 50 mM Tris HCl, pH 7.4, 50 mM NaCl, 2 mM EDTA (binding buffer) containing 0.5% gelatin, 1% DMSO, 2-5 nM ^3 H-retinoic acid and various concentrations of unlabelled retinoids. After 3-5 hours at 22° C., 0.15 ml of chilled charcoal/dextran suspension (5% Norit A/0.5% dextran T-40 in binding buffer) were added for 15 min at 4° C. The tubes were centrifuged at 12,000 x g for 15 minutes and the supernates counted. Binding parameters were calculated from competition curves using the Ligand program.
(§3) Data are means of values obtained from two or more individual experiments, rounded off to two significant figures. […] When binding inhibition at 10,000 nM is less than 50%, >10,000 is indicated.

human RAR-γ [2] = assay: Binding assay for human RAR-γ (displacement of 3H-retinoic acid); conditions: 3H-retinoic acid displacement, mean of two or more experiments
Experimental: as §1, §2, §3

human RAR-α [3] = assay: RAR-α transactivation assay (SeAP reporter, COS cells); format: cell-based; conditions: for Transactivation % max (α): relative to all-trans-retinoic acid at same concentration (1,000 nM or 10,000 nM)
Experimental: (§4) Retinoid Receptor Transactivation Assays
(§5) Transactivation assays were performed essentially as described in Apfel et al., supra. For the RAR transcription activation test system, the secreted alkaline phosphatase gene (SeAP) is used as reporter. To have a screening system specific for the transfected receptor, chimeric receptors are used. These contain an estrogen receptor DNA binding domain and therefore recognize the estrogen response element (ERE) which no endogenous RAR's in mammalian cells will recognize.
(§6) The transactivation assay system has been adapted to 96-well plates and most steps are done by a robot. Briefly, on day 1 confluent COS cells are subcultured at an equivalent density onto 96-well plates in DMEM+10% charcoal stripped serum. On day 2 DNA is prepared for transfection by mixing the following: 10 μg vit-TK-SeAP reporter plasmid, 2 μg RAR expression plasmid, 2 μg transfection control plasmid and 30 μl Transfectam (lipopolyamine transfection reagent). Cells are washed twice with serum-free medium and DNA/transfectam mix added. After 1 hour medium is removed and replaced with growth medium containing test retinoids. On day 4 or 5 the culture supernatant is removed, heated to 65° for 5 min to inactivate nonspecific phosphatases, and diluted 1:10 with water. 20 μl samples are added to 100 μl of phosphatase substrate in buffer. After 1 hour at 37° the luminescence is measured in a 96-well luminometer.
(§7) 100 μl of β-galactosidase substrate is added to the adherent cells. Plates are incubated for 1 hour at 37° and the supernatants transferred to separate plates for quantitation of β-galactosidase activity by luminescence measurement. Transactivation results are expressed as the ratio of SeAP/β-galactosidase activity for each well to correct for well-to-well variation in transfection efficiency.
(§8) Data are means of values obtained from two or more individual experiments, rounded off to two significant figures. […] The maximum transactivation activity is determined from the plot where increasing dosage provides little or no additional activity, i.e., where the plot begins to level off. For active retinoids the highest concentration tested is 1000 nM.

RAR-β = RAR-β transactivation assay (SeAP reporter, COS cells); format: cell-based, human; conditions: for Transactivation % max (β): relative to all-trans-retinoic acid at same concentration (1,000 nM or 10,000 nM)
Experimental: as §4, §5, §6, §7, §8

human RAR-γ [4] = assay: RAR-γ transactivation assay (SeAP reporter, COS cells); format: cell-based; conditions: for Transactivation % max (γ): relative to all-trans-retinoic acid at same concentration (1,000 nM or 10,000 nM)
Experimental: as §4, §5, §6, §7, §8

photodamaged skin = assay: Measurement of photodamage repair in the hairless mouse model; format: in vivo, Hairless mice (female, HRS/J strain); conditions: for Photodamage repair activity (scale 0 to 4): UVB-irradiated, topical in acetone three times per week, three doses
Excerpt: The ability of a composition of the invention to induce repair of photodamaged skin may be determined by any conventional means. One conventional method of determining the ability of a topical composition to repair photodamaged skin is the hairless mouse model described by Kligman et al., supra. […] In this model, repair is defined by the appearance of a zone of normalized dermis extending from the epidermis down to the layer of compressed elastin. The extent of repair is reflected by the width of this zone. […] The average width of the repair zone is then calculated by dividing the area by the length of the histological section that was measured.
The width of the repair zone is […] an activity value of 4.
Measurement of Photodamage Repair
Hairless mice (female, HRS/J strain, Jackson Labs, 5-7 weeks old at the start of the experiments) were housed in yellow light and irradiated three times per week with a bank of 8 Westinghouse Sunlamps (FS120) placed about 20 cm above the animals. Daily doses were 0.03 J/cm^2 for two weeks, 0.06 J/cm2 for two weeks and 0.08 J/cm2 thereafter. The radiation dose is controlled by an International Light Model IL844A Phototherapy Exposure Control and a model SEE240 detector.
To effect repair of the dermal damage, the UVB irradiation was discontinued and the animals were divided into groups of approximately eight and treated three times per week with various concentrations of the retinoids dissolved in acetone. Stock solutions are made up freshly every week in subdued light at concentrations such that the dose is delivered in 100 μl volume and applied topically with a plastic pipette to an area of about 10 cm^2 on the back of the animal. All dosing was done under yellow light. A control group treated with acetone alone was included.
Two-cm strips of dorsal skin were taken longitudinally down the center of the irradiated (and treated) area. Elastin fibers were stained with Luna's aldehyde fuchsin and collagen by Van Gieson. In this model, repair is defined by the appearance of a normalized dermis extending from the epidermis down to the layer of compressed elastin. The extent of repair is reflected by the width of this zone. […] Twenty-four fields each of which, at 100X magnification, represents a section of tissue 0.57 mm long, are examined and the area calculated. The results are reported as the average area per field in mm^2. Thus the average width of the repair zone can be obtained by dividing this average area by 0.57 mm. […] All microscopic fields are included in the calculations of average area (or width). Data are analyzed by Student's t-test.
Compounds are tested at three doses and an approximate ED50 calculated.

[5] = COS cells, 50% of the compound's own maximum, set to highest concentration tested (usually 1000 nM) if no maximum reached, read-out: Transactivation ED50 (α)
[6] = COS cells, 50% of the compound's own maximum, set to highest concentration tested (usually 1000 nM) if no maximum reached, read-out: Transactivation ED50 (β)
[7] = RAR-γ, COS cells, 50% of the compound's own maximum, set to highest concentration tested (usually 1000 nM) if no maximum reached, read-out: Transactivation ED50 (γ)

Structure (SMILES) | IC50 (human RAR-α [1]) | IC50 (human RAR-β) | IC50 (human RAR-γ [2]) | EC50 (human RAR-α [3]; [5]) | Transactivation % max (α) (human RAR-α [3]) | EC50 (RAR-β; [6]) | Transactivation % max (β) (RAR-β) | EC50 (human RAR-γ [4]; [7]) | Transactivation % max (γ) (human RAR-γ [4]; RAR-γ) | Photodamage repair activity (scale 0 to 4) (photodamaged skin) | EC50 (human RAR-α [3]; read-out: Transactivation ED50 (α), COS cells, 50% of the compound's own maximum, set to highest concentration tested (usually 1000 nM) if no maximum reached) | EC50 (human RAR-γ [4]) | EC50 (RAR-β; read-out: Transactivation ED50 (β), COS cells, 50% of the compound's own maximum, set to highest concentration tested (usually 1000 nM) if no maximum reached) | ED50 for photodamage repair (photodamaged skin; μg of test compound applied to 10 cm^2 of skin area, standard retinoid)
CCCCCCc1cc2c(cc1/C=C/C=C/C(C)=C/C(=O)O)C(C)(C)CCC2(C)C [N] | 1500 nM | 2900 nM | 170 nM | 1000 nM | 63% | 1000 nM | 60% | 64 nM | 123% | 4 |  |  |  | 
CCOC(=O)/C=C(C)/C=C/C=C(C)/C=C/c1c(C)cc(OC)c(C)c1C [E, etretinate, reference compound] | > 10000 nM | > 10000 nM | > 10000 nM | 1000 nM | 14% | 1000 nM | 21% | 1000 nM | 20% | 0 |  |  |  | 
CC1(C)CCC(C)(C)c2cc(C(=O)Nc3ccc(C(=O)O)cc3)ccc21 [J] |  |  |  |  |  |  |  |  |  | 0 |  |  |  | 
CCCCCCCOc1cc2c(cc1/C(C)=C/c1ccc(C(=O)O)cc1)C(C)(C)CCS2(=O)=O [Compound L, p-[(E)-2-[3',4'-dihydro-4',4'-dimethyl-7'-(heptyloxy)-2'H-1-benzothiopyran-6'-yl]propenyl]benzoic acid 1',1'-dioxide, reference compound] | 70 nM | 4700 nM | 4200 nM | 1000 nM | 14% | 1000 nM | 14% | 1000 nM | 18% | 0 |  |  |  | 
CCCCCOc1cc2c(cc1/C=C/c1ccc(C(=O)O)cc1)C(C)(C)CCC2(C)C [P] | > 10000 nM | 7600 nM | 670 nM | 1000 nM | 16% | 150 nM | 60% | 29 nM | 90% | 4 |  |  |  | 
C/C(=C\c1ccc(S(C)(=O)=O)cc1)c1ccc2c(c1)C(C)(C)CCC2(C)C [G] | > 10000 nM | > 10000 nM | > 10000 nM | 1000 nM | 23% | 1000 nM | 17% | 1000 nM | 36% | 3 (an ED50 of 1 μg or less (highly active)) |  |  |  | 
C/C(=C\c1ccc(C(=O)O)cc1)c1ccc2c(c1)C(C)(C)CCC2(C)C [F] |  |  |  |  |  |  |  |  |  | 1 (an ED50 of 100 μg) |  |  |  | 
CCS(=O)(=O)c1ccc(/C=C(\C)c2ccc3c(c2)C(C)(C)CCC3(C)C)cc1 [I] | > 10000 nM | > 10000 nM | > 10000 nM | 1000 nM | 10% | 1000 nM | 21% | 1000 nM | 21% | 3 (an ED50 of 1 μg or less (highly active)) |  |  |  | 
COc1cc(C)c(/C=C/C(C)=C/C=C/C(C)=C/C(=O)O)c(C)c1C [D, acitretin, reference compound] |  |  | […] |  |  |  |  |  |  | 0 |  |  |  | 
CC1(C)CCC(C)(C)c2cc(NC(=O)c3ccc(C(=O)O)cc3)ccc21 [K] |  |  |  |  |  |  |  |  |  | 0 |  |  |  | 
